Assay results as given in article PMC6132577, “Methyl group reorientation under ligand binding probed by pseudocontact shifts” (Journal of Biomolecular Nmr, 2018).
Like-named read-outs stand apart in the source and are kept apart here.

Legend:
[1] = target: T1, ntd-HSP90 mutant T149C/I187C tagged with CLaNP-5 (Homo sapiens, UniProt P07900, I187C/T149C); experiment: NMR methyl 13C-1H HSQC titration fitted with TITAN, 1:1 binding model; conditions: mutant 149C/187C
T1 construct: Three double cysteine mutants of the ntd-HSP90 were designed on the surface of the protein; CLaNP-5 (chemical lanthanoid chelate with Lu3+ or Yb3+, attached to the two engineered Cys); made in house
Experimental: (§1) Three double cysteine mutants of the ntd-HSP90 were designed on the surface of the protein, S50C/D54C, A101C/N105C and T149C/I187C (Lescanne et al. [2017]). […] The protein was produced labelled with Leu-δ1-δ2/Val-γ1-γ2-[^13CH3] and purified and tagged with CLaNP5 according to a published protocol (Lescanne et al. [2017]). CLaNP-5 was synthesized as described before (Keizers et al. [2007], [2008]).
(§2) Ntd-HSP90 in 50 mM Tris-HCl and 50 mM NaCl buffer, pH 7.7, was titrated with 4-(2-Fluorophenyl)-2-pyrimidinamine, 1, (Fig. 1), a 189 Da known ligand of ntd-HSP90 that was kindly provided by AstraZeneca (Göteborg, Sweden). Titrations were performed with three ntd-HSP90 mutants, S50C/D54C, A101C/N105C and T149C/I187C tagged with Lu^3+-CLaNP-5 or Yb^3+-CLaNP-5. The concentrations of S50C/D54C, A101C/N105C T149C/I187C were 20, 103 and 65 µM, respectively, for both diamagnetic and paramagnetic forms of the protein. Concentrations (µM) of 1 for titrations with S50C/D54C, A101C/N105C and T149C/I187C were [0, 39, 59, 88, 132, 198, 296, 444, 667, 1000], [0, 20, 40, 121, 364, 1111] and [0, 40, 89, 200, 442, 665, 1008, 1897], respectively. The NMR sample volume was 595 µL for all samples, and dilution was neglected, because the biggest volume of ligand solution added was < 5 µL. ^13C-^1H HSQC (Palmer et al. [1991]; Kay et al. [1992]; Schleucher et al. [1994]) spectra were acquired at each titration point, on a Bruker Avance III 800 MHz spectrometer, equipped with a cryogenically cooled TXI-probe head, operating at 298 K. Spectra were processed with nmrpipe (Delaglio et al. [1995]) using the exponential EM apodization function for analysis with TITAN (Waudby et al. [2016]). A similar titration was performed with WT ntd-HSP90 observing the amide groups. Average CSP were calculated as (ΔH^2 + (ΔC/10)^2)^0.5 for methyl groups and (ΔH^2 + (ΔN/6)^2)^0.5 for amides. PCS were measured using ^1H and for calculations the geometrical average of the proton coordinates in methyl groups were used.
(§3) The dissociation constant KD, as well as the dissociation rate constant (kOFF) were calculated with TITAN software (Waudby et al. [2016]) using a 1:1 binding model (A + B ⇆ A − B). TITAN fits both the equilibrium constant (KD) and the dissociation rate constant (kOFF) on the basis of the CSP and line broadening. A global fit of the resonances of five methyl groups (Table S1) was performed and then one at the time was taken out and the fit repeated. The WT KD was calculated using a titration performed on the ^15N labelled protein, on the basis of four amide protons (Table S1). The ranges of values obtained in this way are reported in Table 1 and provide a more realistic error range than the fit error. […] For these two mutants, a 50 µM variation of the KD results in a change of the extrapolated CSP of 0.01 ppm at most, half the error used for the further calculations. For mutant 149C/187C a KD of 50 µM was used to extrapolate the CSP.

[2] = target: T2, ntd-HSP90 mutant S50C/D54C tagged with CLaNP-5 (Homo sapiens, UniProt P07900, D54C/S50C); experiment: as above; conditions: mutant 50C/54C
T2 construct: Three double cysteine mutants of the ntd-HSP90 were designed on the surface of the protein; CLaNP-5 (chemical lanthanoid chelate with Lu3+ or Yb3+, attached to the two engineered Cys); made in house
Experimental: as §1, §2, §3

[3] = target: T3, ntd-HSP90 mutant A101C/N105C tagged with CLaNP-5 (Homo sapiens, UniProt P07900, A101C/N105C); experiment: as above; conditions: mutant 101C/105C
T3 construct: Three double cysteine mutants of the ntd-HSP90 were designed on the surface of the protein; CLaNP-5 (chemical lanthanoid chelate with Lu3+ or Yb3+, attached to the two engineered Cys); made in house
Experimental: as §1, §2, §3

WT ntd-HSP90 = target: T4, WT ntd-HSP90 (Homo sapiens, UniProt P07900); experiment: NMR titration (15N-labelled protein, amide groups) fitted with TITAN, 1:1 binding model; conditions: four amide protons, range of values from repeated global fits, 298 K, pH 7.7
T4 construct: made in house
Experimental: Ntd-HSP90 in 50 mM Tris-HCl and 50 mM NaCl buffer, pH 7.7, was titrated with 4-(2-Fluorophenyl)-2-pyrimidinamine, 1, (Fig. 1), a 189 Da known ligand of ntd-HSP90 that was kindly provided by AstraZeneca (Göteborg, Sweden). Titrations were performed with three ntd-HSP90 mutants, S50C/D54C, A101C/N105C and T149C/I187C tagged with Lu^3+-CLaNP-5 or Yb^3+-CLaNP-5. The concentrations of S50C/D54C, A101C/N105C T149C/I187C were 20, 103 and 65 µM, respectively, for both diamagnetic and paramagnetic forms of the protein. Concentrations (µM) of 1 for titrations with S50C/D54C, A101C/N105C and T149C/I187C were [0, 39, 59, 88, 132, 198, 296, 444, 667, 1000], [0, 20, 40, 121, 364, 1111] and [0, 40, 89, 200, 442, 665, 1008, 1897], respectively. […] Average CSP were calculated as (ΔH^2 + (ΔC/10)^2)^0.5 for methyl groups and (ΔH^2 + (ΔN/6)^2)^0.5 for amides. PCS were measured using ^1H and for calculations the geometrical average of the proton coordinates in methyl groups were used.
The dissociation constant KD, as well as the dissociation rate constant (kOFF) were calculated with TITAN software (Waudby et al. [2016]) using a 1:1 binding model (A + B ⇆ A − B). […] The WT KD was calculated using a titration performed on the ^15N labelled protein, on the basis of four amide protons (Table S1). […]

[4] = CLaNP-5 tagged, five methyl groups, range of values from repeated global fits, 298 K, pH 7.7
[5] = CLaNP-5 tagged, five methyl groups, range of values from repeated global fits, 298 K, pH 7.7, read-out: KD
[6] = single value used to extrapolate CSP, read-out: KD used for the calculation of the 100% bound state CSP

koff [1, 4]: 1300 to 1900 s⁻¹
Kd [1, 5]: 41 to 45 µM
Kd ([1]; single value used to extrapolate CSP, read-out: KD used to extrapolate the CSP): 50 µM
koff [2, 4]: 1500 to 2300 s⁻¹
Kd [2, 5]: 195 to 238 µM
Kd [2, 6]: 200 µM
koff [3, 4]: 1080 to 1300 s⁻¹
Kd [3, 5]: 140 to 171 µM
Kd [3, 6]: 150 µM
Kd (WT ntd-HSP90): 160 to 220 µM
koff (WT ntd-HSP90): 1400 to 1800 s⁻¹
SMILES: Nc1nccc(-c2ccccc2F)n1 [compound 1, 4-(2-Fluorophenyl)-2-pyrimidinamine]
